ED50 data for four compounds are collected here from US3937818A, “Benzylamine narcotic antagonists” (American Home Products Corporation, priority 1974, dated 1976).

Molecules are shown by their SMILES.

The test concerns Morphine Induced Loss of Righting Reflex. Description: Antagonism of Morphine Induced Loss of Righting Reflex. Type of test: in vivo, male Charles River rats. Particulars: Rattus norvegicus, im; rats; morphine base 75 mg/kg subcutaneously; antagonist intramuscularly 40 minutes after the morphine; measured at 20 minute intervals for 2 hours; read-out: ED50 (dose for 50 percent reversal of the loss of righting reflex). As to the method:
Groups of three male Charles River rats (160 to 200 g.) were dosed subcutaneously with morphine base at 75 mg/kg. The degree of narcosis was measured at 15 and 30 minutes after injection. Criterion was loss of righting reflex. Antagonists were administered 40 minutes after the morphine. The degree of antagonism was measured at 20 minute intervals for 2 hours. Nalorphine at 2 mg/kg. served as a positive control while one group of morphinized rats in each determination received no antagonist and served as negative controls. Compounds were dissolved in water or suspended in Tween-80 and water and were administered intramuscularly. Each dose of the antagonist was tested in a minimum of three experiments. At least three doses of each antagonist was used to determine the ED50. For each experiment the degree of reversal, by the antagonist, of the loss of righting reflex induced by morphine was calculated in the following manner. The total number of periods of loss of righting reflex in the experimental group was divided by the total number of periods of loss of righting reflex in the control group. This number was converted to percent and subtracted from 100 to give percent reversal of loss of righting reflex. The dose for which a 50 percent reversal of the loss of righting reflex was observed is the ED50.
In general, ED50 refers to the dose that gives a 50% effect, or the effect in half of the subjects. In the case of `CN(C)C(c1cccc(O)c1)[C@@H]1CCCC[C@@H]1OCc1ccccc1` (stereo partly drawn) [(dl)-α-dimethylamino-α-(cis-2-benzyloxycyclohexyl)-m-cresol], the 50% effective dose (ED50) worked out at 0.95 mg/kg.

Consider `CN(C)C(c1cccc(O)c1)[C@@H]1CCCC[C@@H]1OCc1ccccc1` (single isomer, unassigned) [(l)-α-dimethylamino-α-(cis-2-benzyloxycyclohexyl)-m-cresol], for which the median effective dose (ED50) is 0.35 mg/kg. With `CCO[C@@H]1CCCC[C@@H]1C(c1cccc(O)c1)N(C)C` (stereo partly drawn) [(dl)-α-dimethylamino-α-(cis-2-ethoxycyclohexyl)-m-cresol], the ED50 is 2 mg/kg. As for `C=CCN1CC[C@]23c4c5ccc(O)c4O[C@H]2[C@@H](O)C=C[C@H]3[C@H]1C5` [Nalorphine, reference compound], the figure is 1 mg/kg.
